# Measurements published in ChEMBL document CHEMBL4371028, “Designing de Novo Small Molecules That Control Heat Shock Protein 70 (Hsp70) and Heat Shock Organizing Protein (HOP) within the Chaperone Protein-Folding Machinery” (J Med Chem, 2019).
# Activity calls are given as the source filed them. The calls are words filed in the database; no cut-off is given here. Peptide text beside a SMILES is read from it. * marks the point of attachment. Biotin = O=C1N[C@H]2[C@H](CS[C@H]2CCCCC(=O)*)N1; PEG4 = NCCOCCOCCOCCOCCC(=O)O
# Columns and labels:
# [1] = target: Stress-induced-phosphoprotein 1 (Homo sapiens) (UniProt P31948); experiment: Inhibition of (2S,8S,11S,14S)-2-(4-aminobutyl)-14-(3-guanidinopropyl)-8-(4-hydroxybenzyl)-11-(hydroxymethyl)-4,7,10,13,16,32-hexaoxo-36-((3aS,4S,6aR)-2-oxohexahydro-1H-thieno[3,4-d]imidazol-4-yl)-19,22,25,28-tetraoxa-3,6,9,12,15,31-hexaazahexatriacontan-1-oic acid binding to His-tagged human HOP expressed in Escherichia coli up to 200 uM by Western blot analysis
# [2] = target: Heat shock protein HSP90 (Homo sapiens) (UniProt P07900+P08238); experiment: Binding affinity to Hsp90 (unknown origin) at 10 to 200 uM after 1 hr by Western blot analysis based pull down assay; type: protein assay
# [3] = species: Homo sapiens; experiment: Binding affinity to human recombinant Hsp70 expressed in Escherichia coli at 10 to 200 uM in presence of 1% Triton-X-100 after 1 hr by Western blot analysis based pull down assay
# [4] = species: Homo sapiens; experiment: Binding affinity to human recombinant Hsp70 expressed in Escherichia coli in presence of 1% Triton-X-100 after 1 hr by Western blot analysis based pull down assay
# Chain of Stress-induced-phosphoprotein 1 (Homo sapiens) (P31948 whole entry, looked up): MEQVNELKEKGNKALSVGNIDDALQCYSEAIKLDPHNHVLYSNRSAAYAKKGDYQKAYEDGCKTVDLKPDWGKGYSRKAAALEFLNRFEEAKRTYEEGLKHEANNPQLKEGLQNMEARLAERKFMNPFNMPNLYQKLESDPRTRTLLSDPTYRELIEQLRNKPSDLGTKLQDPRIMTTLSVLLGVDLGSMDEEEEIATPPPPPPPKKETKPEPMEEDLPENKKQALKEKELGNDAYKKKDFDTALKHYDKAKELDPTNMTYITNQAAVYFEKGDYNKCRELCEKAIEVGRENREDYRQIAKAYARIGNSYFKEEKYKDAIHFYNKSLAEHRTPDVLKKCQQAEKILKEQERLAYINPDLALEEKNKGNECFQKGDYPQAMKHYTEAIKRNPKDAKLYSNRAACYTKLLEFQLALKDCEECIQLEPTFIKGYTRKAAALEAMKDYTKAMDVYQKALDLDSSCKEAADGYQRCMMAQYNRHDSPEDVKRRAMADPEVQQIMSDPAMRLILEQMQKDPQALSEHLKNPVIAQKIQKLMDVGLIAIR
inhibition [1],Activity [2],Activity [3],Activity [4],SMILES
Active,–,–,–,N=C(N)NCCC[C@H](NC(=O)[C@H](CO)NC(=O)[C@H](Cc1ccc(O)cc1)NC(=O)CNC(=O)[C@@H](N)CCCCN)C(=O)O (H-KGYSR-OH)
–,inactive,inactive,–,CC(C)C[C@H](NC(=O)[C@H](C)NC(=O)[C@H](C)NC(=O)CCOCCOCCOCCOCCNC(=O)CCCC[C@@H]1SC[C@@H]2NC(=O)N[C@@H]21)C(=O)N[C@@H](CCC(=O)O)C(=O)N[C@@H](Cc1ccccc1)C(=O)O ({Biotin-PEG4}-AALEF-OH)
–,inactive,–,Dose-dependent effect,N=C(N)NCCC[C@H](NC(=O)[C@H](CO)NC(=O)[C@H](Cc1ccc(O)cc1)NC(=O)CNC(=O)[C@H](CCCCN)NC(=O)CCOCCOCCOCCOCCNC(=O)CCCC[C@@H]1SC[C@@H]2NC(=O)N[C@@H]21)C(=O)O ({Biotin-PEG4}-KGYSR-OH)
